{"source": "paper PMC11505029", "about": "“Isatin Bis-Imidathiazole Hybrids Identified as FtsZ Inhibitors with On-Target Activity Against Staphylococcus aureus” (Antibiotics, 2024)", "origin": "cited, not measured here", "parameters_in_all_cases": "method as in PMID 36144518", "key": {"S. aureus ATCC 25923": {"test_system": "S. aureus ATCC 25923", "settings": "cited from earlier work"}, "E. coli ATCC 25922": {"test_system": "E. coli ATCC 25922", "settings": "100 μM; mean ± SD; cited from earlier work"}, "C. albicans ATCC 10231": {"test_system": "C. albicans ATCC 10231", "settings": "100 μM; mean ± SD; cited from earlier work"}, "[1]": {"test_system": "Vero cell line (ATCC CCL-81)", "settings": "100 μM; mean ± SD; cited from earlier work"}}}
{"smiles": "COc1ccc2c(c1)C(c1c(Cl)nc3sccn13)(c1c(Cl)nc3sccn13)C(=O)N2", "note": "[Compound 6k]", "values": [{"measurement": "Microbial growth, S. aureus", "setting": "S. aureus ATCC 25923; 100 μM, mean ± SD", "value": "43.4 ± 5.6", "unit": "%"}, {"measurement": "IC50", "setting": "S. aureus ATCC 25923; S. aureus, lead compounds", "value": 80, "unit": "µM"}, {"measurement": "Microbial growth, E. coli", "setting": "E. coli ATCC 25922", "value": "102.7 ± 2.4", "unit": "%"}, {"measurement": "Microbial growth, C. albicans", "setting": "C. albicans ATCC 10231", "value": "104.1 ± 1.9", "unit": "%"}, {"measurement": "Cell proliferation, Vero", "setting": "[1]", "value": "70.9 ± 5.6", "unit": "%"}]}
